# Laboratory results reported in patent US20230190852A1, “COMPOSITIONS AND METHODS FOR JOINT HEALTH” (Unigen, Inc., priority 2013, published 2023).
# Assays:
# BKB1 receptor = target: T1, BKB1 receptor (Homo sapiens, UniProt P46663); experiment: Bradykinin B1 (BKB1) radioligand binding assay
# T1 construct: Membranes from human IMR-90 lung fibroblasts, stimulated with IL-1β; endogenous in cells; host or cells: human IMR-90 lung fibroblasts, IL-1β stimulated (membranes)
# T1 sequence (P46663 1-353): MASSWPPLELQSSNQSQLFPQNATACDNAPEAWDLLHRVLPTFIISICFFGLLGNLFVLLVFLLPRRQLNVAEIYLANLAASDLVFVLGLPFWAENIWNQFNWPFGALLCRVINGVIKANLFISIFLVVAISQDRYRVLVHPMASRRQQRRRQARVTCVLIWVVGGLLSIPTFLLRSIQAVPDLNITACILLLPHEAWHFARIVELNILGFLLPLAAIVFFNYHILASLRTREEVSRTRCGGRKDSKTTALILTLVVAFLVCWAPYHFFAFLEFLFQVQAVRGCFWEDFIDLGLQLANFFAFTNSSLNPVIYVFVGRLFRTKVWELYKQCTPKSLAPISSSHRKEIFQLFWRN
# Description: Membranes from human IMR-90 lung fibroblasts, stimulated with IL-1β in modified HEPES buffer (PH=7.4), were incubated with a test sample in the presence of 0.9 nM [^3H](Des-[…])-Kallidin for 60 minutes at room temperature. After incubation, membranes were filtered and washed five times with modified DPBS buffer (pH=7.4). Samples were scintillation counted to determine the amount of specifically bound to the BKB1 receptor containing membrane. […] BKB1 binding assay, as described in Example 17, was used to test curcumin compound isolated from a Curcuma longa extract (Compound 11), as well as commercially available curcumin purchased from Sigma-Aldrich (C1386). Curcumin was tested at final concentrations ranging from 200 μM to 5 nM. Binding curves were plotted by non-linear regression fit (using GraphPad Prizm software). Ki values were computed using Cheng-Prusoff algorithm. In addition, inhibition of BKB2 receptor binding activity by curcumin was examined with methods similar to those described in Example 17 for the BKB1 receptor with some modifications. […] Composition of Assay Buffer: 24 mM TES, pH 6.8, 1 mM 1.10-Phenanthrioline, 0.3% BSA. • 2. Source of BKb2R: CHO-K1 cells expressing recombinant human BKb2R • 3. Ligand: [^3H]-Bradykinin 0.2 nM. • 4. Incubation time: 90 min RT. • 5. Reading: TopCount.
# recombinant human BKb2R = target: T2, recombinant human BKb2R (Homo sapiens, UniProt P30411); experiment: Bradykinin Radioligand Binding Assay (BKB2); details: manually calculated by Cheng-Prusoff equation; read-out: BKB2 Ki (μg/ml) (converted)
# T2 construct: expressed in transfected cells; host or cells: CHO-K1
# T2 sequence (P30411 1-391): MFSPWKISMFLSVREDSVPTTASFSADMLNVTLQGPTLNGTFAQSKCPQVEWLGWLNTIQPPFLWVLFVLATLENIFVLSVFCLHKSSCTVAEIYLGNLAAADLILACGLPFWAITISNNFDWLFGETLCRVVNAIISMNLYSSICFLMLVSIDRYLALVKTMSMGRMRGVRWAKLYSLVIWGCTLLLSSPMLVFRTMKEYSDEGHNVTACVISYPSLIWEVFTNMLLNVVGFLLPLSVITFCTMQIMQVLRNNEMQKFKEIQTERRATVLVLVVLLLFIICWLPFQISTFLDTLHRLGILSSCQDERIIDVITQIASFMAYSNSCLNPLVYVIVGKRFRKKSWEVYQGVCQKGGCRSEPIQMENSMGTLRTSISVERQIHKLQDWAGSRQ
# Description: BKB1 binding assay, as described in Example 17, was used to test curcumin compound isolated from a Curcuma longa extract (Compound 11), as well as commercially available curcumin purchased from Sigma-Aldrich (C1386). Curcumin was tested at final concentrations ranging from 200 μM to 5 nM. Binding curves were plotted by non-linear regression fit (using GraphPad Prizm software). Ki values were computed using Cheng-Prusoff algorithm. In addition, inhibition of BKB2 receptor binding activity by curcumin was examined with methods similar to those described in Example 17 for the BKB1 receptor with some modifications. Bradykinin Radioligand Binding Assay (BKB2) was conducted using a standard assay under the following conditions: • 1. Composition of Assay Buffer: 24 mM TES, pH 6.8, 1 mM 1.10-Phenanthrioline, 0.3% BSA. • 2. Source of BKb2R: CHO-K1 cells expressing recombinant human BKb2R • 3. Ligand: [^3H]-Bradykinin 0.2 nM. • 4. Incubation time: 90 min RT. • 5. Reading: TopCount.
# Commercial curcumin (Sigma, C1386) was tested at concentrations ranging from 200 μM to 5 nM. […] Ki was manually calculated by using Cheng-Prusoff equation.
# CD-1 mice [1] = experiment: Nociceptive behavior model elicited by intraplantar injection of formalin; type: in vivo
# Description: Mice (n=6 per group) were habituated under inverted Plexiglas observation chamber for 30 minutes to allow them to acclimatize to their surroundings. […] Mice were immediately transferred to their individual observational chamber. […] Mirrors positioned behind the chambers enabled observation of the right hind paw when it was obscured from direct view. […] These behavioral reactions observed for the first five minutes are due to direct action of the irritant on sensory nerve endings where is believed to be as a result of inflammation in the later phase. […] Mice were treated with curcumin (50, 100, 150 or 200 mg/kg) or ibuprofen (200 mg/kg) orally half an hour before intraplantar formalin injection.
# [2] = tested on: Rabbit cartilage explants; experiment: Ex vivo glycosaminoglycans (GAG) release assay; type: cell-based
# Description: Articular cartilage from hock joints of rabbits (2.5 kg body weight) was removed immediately after each animal was sacrificed and articular cartilage explants were obtained by following the method described by Sandy et al. (Biochem. Biophy Acta 543:36, 1978). Briefly, after the articular surfaces were surgically exposed under sterile conditions, approximately 200-220 mg articular surfaces per joint were dissected and submerged into complete medium (DMEM, supplemented with heat inactivated 5% FBS; penicillin 100 U/ml; streptomycin 100 ug/ml). They were then rinsed several times with the complete medium and incubated for 1 to 2 days at 37° C. in a humidified 5% CO2/95% air incubator for stabilization. The complete medium was replaced with a basal medium (DMEM, supplemented with heat-inactivated 1% FBS, 10 mM HEPES, and penicillin 100 U/ml streptomycin 100 μg/ml). Approximately 30 mg cartilage pieces (2×3×0.35 mm/piece) were placed in 24-well plates and treated with given concentrations of test agents. After pretreatment for 1 h, 5 ng/ml of rhIL-1α was added to the culture medium and further incubated at 37° C. in a humidified 5% CO2/95% air incubator. The culture medium was collected 24 h later and stored at −20° C. until assay.
# The amount of sulphated GAGs (e.g., released from proteoglycans) in the medium at the end of the reaction reflects the amount of articular cartilage degradation, which was determined using the commercially available 1,9-dimethy-methylene blue method according to the instructions of the manufacturer (Blyscan™ assay, Accurate Chemical and Scientific Corp., Westbury, N.Y.).
# CD-1 mice [3] = experiment: Visceral pain perception model (Writhing's test, acetic acid); type: in vivo
# Description: Mice (n=6 per group) were habituated under an inverted Plexiglas observation chamber for 30 minutes to allow them to acclimatize to their surroundings. Animals were orally administered treatment articles at different doses, […], or vehicle control (propylene glycol) 30 minutes before intraperitoneal administration of freshly made acetic acid solution (0.7% in 0.9% NaCl) at 10 ml/kg using a 26 gauge needle. The experiment was carried out at room temperature. After the challenge, each animal was placed back into its own individual section of the observation chamber and the number of constrictions of the abdominal muscle together with stretching was counted cumulatively over a period of 30 minutes (Collier et al., Br. J. Pharmacol. Chemother. 32:295, 1968).
# Lewis rats = experiment: Carrageenan-induced rat paw edema model (paw edema and pain sensitivity); type: in vivo; details: for Pain sensitivity, percent change of vehicle / Paw edema, percent change of vehicle: 166 mg/kg oral 1 hr after carrageenan, female Lewis rats
# Description: Local inflammation was induced by intraplantar injection of carrageenan λ (Sigma, St. Louis, Mo.; 100 μl of 1% [w/v] in saline) into the plantar surface of right hind paw of sedated rat (with 2.5% isoflurane) at time 0 (T=0) (Gamache et al., J Neurosurg. 65:679, 1986; Guay et al., J. Biol. Chem. 279:24866, 2004; Chou et al., Anesth. Analg. 97:1724, 2003). Rats were acclimated in a procedure room for 20-30 minutes before each measurement was taken. Allodynia was evaluated by measuring responsiveness to the tip of a Randell-Selitto paw pressure test applied perpendicular to the central plantar surface of the right hind paw. A positive response to the applied pressure, noted by sharp withdrawal of the paw, was recorded automatically by an electronic Von Frey Anesthesiometer (2390 series Electrovonfrey, IITC, Woodland Hills, Calif.) (Vivancos et al., Braz. J. Med. Biol. Res. 37:391, 2004). Mechanical allodynia was evaluated before carrageenan inoculation, and thereafter at 1 hr, 2 hr, 4 hr and 6 hr. Paw edema volume was measured with the use of Plethysmometer (IITC, Woodland Hills, Calif.; Model 520) at time 0 (before carrageenan), and then 1 hr, 2 hr, 4 hr, and 6 hr after carrageenan injection. Animals (N=5 per group) were orally gavaged with a positive control ibuprofen (Spectrum Chemical MFG, Gardena, Calif.) (100 or 200 mg/kg); test articles such as: extracts, and combinations of extracts at various doses from 100, 200, 300 to 400 mg/kg and vehicle control (propylene glycol) were given 1 hour after carrageenan inoculation unless specified otherwise.
smiles,measurement,setting,value
COc1cc(/C=C/C(=O)CC(=O)/C=C/c2ccc(O)c(OC)c2)ccc1O [Curcumin],selectivity BKB1 vs BKB2 binding,BKB1 receptor,selective BKB1 antagonist
same,Ki,"BKB1 receptor; Cheng-Prusoff, read-out: BKB1 Ki (μg/ml) (converted)",5.9 µM
same,Ki,recombinant human BKb2R,157 µM
same,Pain Sensitivity 20-40 Minutes after Formalin Injection % ↓ vs. Vehicle,CD-1 mice [1]; 50 mg/kg oral,53.1%
same,Pain Sensitivity 20-40 Minutes after Formalin Injection % ↓ vs. Vehicle,CD-1 mice [1]; 100 mg/kg oral,52.5%
same,Pain Sensitivity 20-40 Minutes after Formalin Injection % ↓ vs. Vehicle,CD-1 mice [1]; 150 mg/kg oral,60.3%
same,Pain Sensitivity 20-40 Minutes after Formalin Injection % ↓ vs. Vehicle,CD-1 mice [1]; 200 mg/kg oral,74.6%
"CC(=O)N[C@H]1C(O)O[C@H](CO)[C@@H](O)[C@@H]1O (stereo partly shown) [NAG, N-Acetyl Glucosamine]",activity at 25 µg/mL,"[2]; Oryctolagus cuniculus, 24 h, 25 μg/ml, rhIL-1α 5 ng/ml (IL-1α alone = 100)",95.7%
same,activity at 50 µg/mL,"[2]; Oryctolagus cuniculus, 24 h, 50 μg/ml, rhIL-1α 5 ng/ml (IL-1α alone = 100)",99.2%
same,activity at 100 µg/mL,"[2]; Oryctolagus cuniculus, 24 h, 100 μg/ml, rhIL-1α 5 ng/ml (IL-1α alone = 100)",87.5%
same,activity at 150 µg/mL,"[2]; Oryctolagus cuniculus, 24 h, 150 μg/ml, rhIL-1α 5 ng/ml (IL-1α alone = 100)",81.2%
same,protective effect on rhIL-1α-mediated PG degradation / GAG release,[2]; rhIL-1α 5 ng/ml,marginal
same,"number of abdominal constrictions / behavioral responses in 30 minutes, Mean ± SD",CD-1 mice [3]; 300 mg/kg oral,91.0 ± 18.7
same,"Visceral pain sensitivity, behavioral responses, Mean ± SD","CD-1 mice [3]; 300 mg/kg oral 30 min before acetic acid i.p., observed 30 minutes, CD-1 mice",91.0 ± 18.7
same,"Visceral pain sensitivity, % inhibition vs vehicle","CD-1 mice [3]; 300 mg/kg oral, vs vehicle, CD-1 mice",5.4%
same,"Pain sensitivity, percent change of vehicle",Lewis rats; 1 hr,8.8%
same,"Paw edema, percent change of vehicle",Lewis rats; 1 hr,8.2%
same,"Pain sensitivity, percent change of vehicle",Lewis rats; 3 hr,3.6%
same,"Paw edema, percent change of vehicle",Lewis rats; 3 hr,15.8%
same,"Pain sensitivity, percent change of vehicle",Lewis rats; 5 hr,2.6%
same,"Paw edema, percent change of vehicle",Lewis rats; 5 hr,6.2%
same,analgesic and anti-inflammatory activity,"Lewis rats; oral, rosmarinic acid 200 mg/kg, eriocitrin 100 mg/kg, NAG 166 mg/kg",minimal to no activity in inhibiting pain or inflammation
